Test results reported in ChEMBL document CHEMBL1201862, “PubChem BioAssay data set” (2004).
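Grown in 96-well plates, cells were treated for 48 hours with each compound at five concentrations. Insufficient inhibition: endpoint recorded as highest concentration tested. GI50: concentration for 50% inhibition of growth.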 Calls of active or inactive are those of the source. No stated cut-off is given here; in the data, active = GI50 up to about 1.1 µM and inactive = higher.

Experiments:
Test in all cases: NCI-60 cell line screen, 48 h
A549 = tested on: A549
HOP-62 = tested on: HOP-62
HOP-92 = tested on: HOP-92
MCF7 = tested on: MCF7
MDA-MB-435 = tested on: MDA-MB-435
MOLT-4 = tested on: MOLT-4
NCI-H226 = tested on: NCI-H226
NCI-H522 = tested on: NCI-H522
OVCAR-3 = tested on: OVCAR-3
OVCAR-8 = tested on: OVCAR-8
PC-3 = tested on: PC-3
SF-268 = tested on: SF-268
SN12C = tested on: SN12C
SNB-19 = tested on: SNB-19
TK-10 = tested on: TK-10
UACC-257 = tested on: UACC-257
UACC-62 = tested on: UACC-62
UO-31 = tested on: UO-31
A498 = tested on: A498

Measured: GI50

N=C(N)NS(=O)(=O)c1ccc(NC(=O)c2cccc3c(NNc4ccc(S(N)(=O)=O)cc4)c4ccccc4nc23)cc1
inactive: A549 > 100 µM | HOP-62 > 100 µM | HOP-92 25.3 µM | MCF7 26.4 µM | MDA-MB-435 51.6 µM | MOLT-4 28.2 µM | NCI-H226 > 100 µM | NCI-H522 41.1 µM | OVCAR-3 36.1 µM | OVCAR-8 66.1 µM | PC-3 59.7 µM | SF-268 73.5 µM | SN12C 99.3 µM | SNB-19 > 100 µM | TK-10 > 100 µM | UACC-257 > 100 µM | UACC-62 > 100 µM | UO-31 > 100 µM

COC1=CC2(C=CC1=O)c1cc(OC)c(OC)cc1CCN2C(=O)c1ccccc1 (stereo not given)
inactive: A498 > 100 µM | A549 > 100 µM | HOP-92 > 100 µM | MOLT-4 > 100 µM | NCI-H226 > 100 µM | NCI-H522 > 100 µM | OVCAR-3 > 100 µM | OVCAR-8 > 100 µM | SN12C > 100 µM | SNB-19 > 100 µM | TK-10 > 100 µM | UACC-257 > 100 µM | UACC-62 > 100 µM | UO-31 97.9 µM

CCOC(=O)C1(C(=O)OCC)[C@@H](c2ccccc2)C2=NO[C@@H]3CCC[C@H]1[C@H]23
inactive: A549 48.4 µM | HOP-62 43.6 µM | HOP-92 42.7 µM | MCF7 41.7 µM | MDA-MB-435 21.6 µM | MOLT-4 55.7 µM | NCI-H226 78.5 µM | NCI-H522 42.1 µM | OVCAR-3 27 µM | OVCAR-8 58.9 µM | PC-3 60.1 µM | SF-268 > 100 µM | SN12C > 100 µM | SNB-19 > 100 µM | TK-10 49.4 µM | UACC-257 24 µM | UACC-62 8.26 µM | UO-31 53.3 µM

CN(C(=O)C1CCCCCC1=O)c1ccccc1Cl (stereo not given)
inactive: A498 > 100 µM | A549 > 100 µM | HOP-62 > 100 µM | HOP-92 > 100 µM | MDA-MB-435 > 100 µM | MOLT-4 > 100 µM | NCI-H226 > 100 µM | NCI-H522 > 100 µM | OVCAR-3 > 100 µM | OVCAR-8 > 100 µM | SF-268 > 100 µM | SN12C > 100 µM | SNB-19 > 100 µM | TK-10 > 100 µM | UACC-257 > 100 µM | UO-31 > 100 µM

NCC(=O)N1CCN(c2nc(N3CCCC3)c3nc(Cl)c(NCc4ccccc4)nc3n2)CC1
inactive: A549 1.87 µM | HOP-62 1.56 µM | HOP-92 1.45 µM | MCF7 1.83 µM | MDA-MB-435 1.85 µM | MOLT-4 1.12 µM | NCI-H226 3.66 µM | NCI-H522 1.78 µM | OVCAR-3 1.82 µM | OVCAR-8 1.77 µM | PC-3 2.48 µM | SF-268 2.07 µM | SN12C 1.85 µM | SNB-19 1.82 µM | TK-10 1.9 µM | UACC-257 1.74 µM | UACC-62 1.8 µM | UO-31 1.66 µM

CC(=O)Nc1ccc(C(=O)NN2C(=O)C(Cl)C2c2cc(Br)ccc2O)cc1 (stereo not given)
inactive: A549 5.46 µM | HOP-62 2.2 µM | HOP-92 15.2 µM | MCF7 3.84 µM | MDA-MB-435 7.69 µM | MOLT-4 3.37 µM | NCI-H226 7.36 µM | NCI-H522 6.55 µM | OVCAR-3 4.11 µM | OVCAR-8 6.52 µM | PC-3 3.88 µM | SF-268 1.91 µM | SN12C 8.71 µM | SNB-19 7.62 µM | TK-10 36.1 µM | UACC-257 3.93 µM | UACC-62 3.85 µM | UO-31 3.72 µM

COC(=O)c1c(C(=O)OC)c2ccccn2c1-c1cc(OC)c(Br)c(=O)o1
inactive: A498 > 100 µM | A549 > 100 µM | HOP-62 > 100 µM | MDA-MB-435 > 100 µM | MOLT-4 > 100 µM | NCI-H226 > 100 µM | NCI-H522 68.7 µM | OVCAR-3 > 100 µM | OVCAR-8 > 100 µM | PC-3 > 100 µM | SF-268 > 100 µM | SN12C > 100 µM | SNB-19 > 100 µM | TK-10 > 100 µM | UACC-257 > 100 µM | UACC-62 > 100 µM | UO-31 > 100 µM

CCC(c1ccc(N(C)C)cc1)C1NC(=S)NC1=O (stereo not given)
inactive: A498 50.6 µM | A549 > 100 µM | HOP-92 > 100 µM | MCF7 > 100 µM | MDA-MB-435 34.4 µM | MOLT-4 30.7 µM | NCI-H226 87.3 µM | NCI-H522 > 100 µM | OVCAR-8 > 100 µM | SF-268 > 100 µM | SN12C > 100 µM | SNB-19 > 100 µM | TK-10 85.5 µM | UACC-257 > 100 µM | UO-31 96.8 µM

CC(C)[Si](Oc1ccc(CC2N(C(=O)c3ccc([N+](=O)[O-])cc3)C(CCc3ccccc3)CC2(C)C=O)cc1)(C(C)C)C(C)C (stereo not given)
inactive: A498 > 100 µM | HOP-62 7.57 µM | HOP-92 13.9 µM | NCI-H226 15.5 µM | NCI-H522 > 100 µM | OVCAR-3 > 100 µM | OVCAR-8 13.6 µM | PC-3 > 100 µM | SF-268 19.4 µM | SNB-19 15.6 µM | TK-10 > 100 µM | UACC-257 > 100 µM | UACC-62 > 100 µM | UO-31 > 100 µM

S=C1Nc2cnc3ccccc3c2SC1c1ccccc1 (stereo not given)
inactive: A549 > 100 µM | HOP-62 42.9 µM | MCF7 > 100 µM | MDA-MB-435 83.4 µM | MOLT-4 > 100 µM | NCI-H226 > 100 µM | NCI-H522 > 100 µM | OVCAR-3 > 100 µM | OVCAR-8 > 100 µM | PC-3 > 100 µM | SF-268 > 100 µM | SN12C > 100 µM | SNB-19 > 100 µM | TK-10 > 100 µM | UACC-257 > 100 µM | UACC-62 > 100 µM | UO-31 > 100 µM

COc1ccc(/N=C2\S/C(=N\C(=N\c3ccccc3)SCc3ccccc3)N(c3ccccc3)\C2=N/c2ccc(OC)cc2)cc1
inactive: A549 > 100 µM | HOP-62 > 100 µM | HOP-92 > 100 µM | MCF7 > 100 µM | MOLT-4 > 100 µM | NCI-H226 > 100 µM | OVCAR-8 > 100 µM | PC-3 > 100 µM | SN12C > 100 µM | SNB-19 > 100 µM | TK-10 > 100 µM | UACC-257 > 100 µM | UACC-62 > 100 µM | UO-31 > 100 µM

COc1c(-c2nc3ccc(N4CCN(C)CC4)nc3[nH]2)cc(OC)c2c1nc(CO)n2C
inactive: A549 > 100 µM | HOP-62 > 100 µM | HOP-92 > 100 µM | MDA-MB-435 > 100 µM | MOLT-4 > 100 µM | NCI-H226 > 100 µM | NCI-H522 > 100 µM | OVCAR-3 > 100 µM | OVCAR-8 > 100 µM | PC-3 > 100 µM | SF-268 > 100 µM | SN12C > 100 µM | SNB-19 > 100 µM | UACC-257 > 100 µM | UACC-62 > 100 µM | UO-31 > 100 µM
